The values below come from publication PMC9959553, “Promising Antifungal Molecules against Mucormycosis Agents Identified from Pandemic Response Box®: In Vitro and In Silico Analyses” (Journal of Fungi, 2023).

Structures are written as SMILES. Converted amounts (≈) assume the structure as drawn. Like-named read-outs stand apart in the source and are kept apart here.

For data set [1] the following is noted: cited from earlier work.
The test system of a further data set is R. microsporus. The data set is described as follows: Antifungal susceptibility testing (broth microdilution, MIC and MFC). The class given is cell-based, Rhizopus microsporus var. microsporus. The settings on record: for MIC50 / MFC: Rhizopus microsporus, 48 h; for MIC50: lowest concentration that inhibits 50% of fungal growth; for MFC: subculture in drug-free medium. The procedure:
(§1) The susceptibility of the Rhizopus species to MMV396785 (alexidine), MMV1580844, MMV642550 and MMV019724 was determined using the broth microdilution method, according to EUCAST protocols, with modifications. Posaconazole and amphotericin B were also used as reference antifungal drugs because they are commonly used for the treatment of mucormycosis. […] A standardized suspension of conidia (2 × 10^5/mL) was added to the wells and incubated for 48 h at 37 °C, in a 5% CO2 atmosphere. Fungal growth was analyzed via spectrophotometry readings at 600 nm and cell viability was assessed using the XTT reduction assay. Minimum inhibitory concentration (MIC) of each compound was defined as the lowest concentration that inhibits 50% of fungal growth, because these fungi are highly resistant to antifungal drugs and a reduction in half of their growth is relevant. […] MFC values were defined as the lowest drug concentration able to arrest fungal growth.
For orientation: In broth dilution the organism is exposed to a series of concentrations in liquid medium.

The subject of data set [2] is R. oryzae UCP1295. Kind of data set: Antifungal drug synergy assay, checkerboard method (FICI). The class given is cell-based, Rhizopus oryzae. The note with it: Rhizopus arrhizus, UCP1295, 48 h; drug alone; read-out: MIC50 Alone. The procedure: (§2) Synergistic interactions were evaluated using the checkerboard method according to EUCAST guidelines (EUCAST 2008). R. oryzae conidia (2 × 10^5/mL) were grown in 96-well plates containing supplemented RPMI in the presence of the following selected compounds: […] An inhibition of at least 50% was defined as the cut-off for minimum inhibitory concentration (MIC). Interactions were determined by the fractional inhibitory concentration index (FICI), which was calculated using the following formula: (MIC combined/MIC drug A alone) + (MIC combined/MIC drug B alone). […] The Bliss independence model calculation was performed according to […] colleagues and Zhao and colleagues. The following formula was used to assess drug interaction: […] The results were classified as follows: synergistic effect when Eobs > Eexp; indifference when Eobs = Eexp; antagonistic effect when Eobs < Eexp.

The subject of the next data set is R. stolonifer. The data set is described as follows: Antifungal susceptibility testing (broth microdilution, MIC and MFC). It counts as cell-based, Rhizopus stolonifer. The settings on record: for MIC50 / MFC: Rhizopus stolonifer, 48 h; for MIC50: lowest concentration that inhibits 50% of fungal growth; for MFC: subculture in drug-free medium. The procedure:
as §1

The test system of data set [3] is R. oryzae. Kind of data set: Antifungal drug synergy assay, Bliss independence model. It counts as cell-based, Rhizopus oryzae. Details: key to Interaction: S, synergistic interaction; A, antagonist interaction; Efficacy of Combined Drugs, E obs / Efficacy of Combined Drugs, E exp: concentration or dose not given beside the values. The settings on record: for Efficacy of Drugs Alone (% of Inhibition), MIC50: at MIC50; for Efficacy of Drugs Alone (% of Inhibition), ½ MIC50: at ½ MIC50; for ΔE: Eobs minus Eexp; for Efficacy of Combined Drugs, E exp: expected by Bliss calculation. As to the method:
as §2

The subject of data set [4] is R. oryzae, R. microsporus and R. stolonifer. Kind of data set: Antifungal susceptibility testing, values stated over the three species. The class given is cell-based. The note with it: over the three Rhizopus species. As to the method:
as §1

For data set [5], the system named is R. oryzae. The data set is described as follows: Antifungal susceptibility testing (broth microdilution, MIC and MFC). It counts as cell-based, Rhizopus oryzae. The note with it: for MIC50 / MFC: Rhizopus arrhizus, 48 h; for MIC50: lowest concentration that inhibits 50% of fungal growth; for MFC: subculture in drug-free medium. As to the method: as §1
The test system of a further data set is R. oryzae cells. The data set is described as follows: Analysis of fungal cell alterations with fluorescent staining. It counts as cell-based, Rhizopus oryzae. The note with it: ½× MIC50, 48 h. As to the method: Alterations of R. oryzae cells caused by alexidine, MMV1580844, MMV642550 and MMV019724 were analyzed using fluorescent staining. Chitin, nucleic acid, oxidative stress, mitochondrial membrane potential and neutral lipid content were evaluated using calcofluor white (Sigma-Aldrich, MO, USA), Sytox Blue (ThermoFisher, Waltham, MA, USA), 2′,7′–dichlorofluorescein diacetate (DCFH-DA) (Sigma-Aldrich, MO, USA), JC-1 probe (ThermoFisher, Waltham, MA, USA) and Nile Red (Sigma-Aldrich, MO, USA), respectively. […] Cells were stained with 25 μg/mL of calcofluor white, 20 μM of Sytox Blue, 50 μg/mL of DCFH-DA, 10 μg/mL of JC-1 or 20 μg/mL of Nile Red, all of them for 1 h at 37 °C in the dark. Samples were washed three times to remove residual dye and suspended in PBS. Fluorescence intensity was measured using the SpectraMax 340 microplate reader (Molecular Devices, San José, CA, USA) under the following conditions: calcofluor white at 350 nm (excitation) and 432 nm (emission); Sytox Blue at 444 nm (excitation) and 480 nm (emission); DCFH-DA at 492 nm (excitation) and 517 nm (emission); JC-1 at 475 nm (excitation) and 529 nm (green fluorescence) or 590 nm (red fluorescence) for the calculation of the red/green fluorescence intensity; and Nile Red at 550 nm (excitation) and 635 nm (emission).

Data set [6] relates to R. microsporus preformed biofilm. Kind of data set: Preformed biofilm assay. The class given is cell-based, Rhizopus microsporus. The settings on record: R. microsporus, based on biofilm viability parameter. As to the method: (§3) For the preformed biofilm assay, cells were cultured as described above in the absence of the compounds. […] An additional incubation of 24 h at 37 °C was performed to evaluate the anti-biofilm activity. Evaluation of both biofilm formation and preformed biofilms was performed using three parameters as previously described. Crystal violet, safranin and XTT assays were used to analyze the overall biomass, extracellular matrix and metabolic activity, respectively.

A short description of data set [7]: Cytotoxicity assay (neutral red). The class given is cell-based. The note with it: human. As to the method:
(§4) Cytotoxicity of alexidine, MMV1580844, MMV642550 and MMV019724 was performed using three cell lineages: RAW 264.7, a murine macrophage culture; A549, adenocarcinomic human alveolar basal epithelial cells; and HaCaT, a spontaneously transformed aneuploid immortal keratinocyte cell line from adult human skin. Cells were grown in DMEM (Dulbecco’s Modified Eagle’s Medium, Sigma-Aldrich, MO, USA), supplemented with 10% fetal bovine serum and incubated for 48 h at 37 °C with 5% CO2 in the presence of serially diluted concentrations (0.3–50 μM) of each compound. Cell viability was measured using the neutral red (NR) assay and quantified using a spectrophotometer at 595 nm (SpectraMax® i3x, Molecular Devices®, San José, CA, USA).

Data set [8] relates to R. stolonifer preformed biofilm. The data set is described as follows: Preformed biofilm assay. The settings on record: R. stolonifer, based on biofilm viability parameter. It counts as cell-based, Rhizopus stolonifer. The procedure: as §3
Data set [9] concerns R. oryzae UCP1295. The data set is described as follows: Screening of the Pandemic Response Box library at 5 µM. The class given is cell-based, Rhizopus oryzae. The note with it: for inhibition at 5 µM: Rhizopus arrhizus, UCP1295, 48 h; for Viability Inhibition (XTT): XTT reduction. Summed up:
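Growth inhibition was read at 600 nm after conidia (2 × 10^5/mL) grew 48 h at 37 °C, 5% CO2, with 5 μM compound in glucose-supplemented (2%), MOPS-buffered RPMI (pH 7.2). Controls were posaconazole at 5 μM and 1% DMSO. The selection cut-off was at least 60% inhibition.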
(Formazan colour is commonly taken as a measure of viable cells.)

Data set [10] in a line: Cytotoxicity assay (neutral red). The class given is cell-based, murine. The settings on record: mouse, RAW 264.7 macrophage cells. As to the method: as §4
The mark [11] stands for this setting: Table S1, mean of the four values, read-out: % of growth inhibition, Mean.
Setting [12] is: optical density 600 nm, read-out: Growth Inhibition.

As a reminder, the MIC50 is the lowest concentration that inhibits either 50% of growth or 50% of the strains tested, depending on the study. One may read the MFC as the smallest concentration meeting the test's criterion for killing the fungus. As for `C[C@@H]1[C@H](O)[C@@H](C)/C=C/C=C/C=C/C=C/C=C/C=C/C=C/[C@H](O[C@@H]2O[C@H](C)[C@@H](O)[C@H](N)[C@@H]2O)C[C@@H]2O[C@](O)(C[C@@H](O)C[C@@H](O)[C@H](O)CC[C@@H](O)C[C@@H](O)CC(=O)O[C@H]1C)C[C@H](O)[C@H]2C(=O)O` [Amphotericin B, reference compound], the oral bioavailability result in [1] is on record as “negligible”. In addition, the MIC50 in the data set with R. microsporus, in the data set on R. stolonifer and in the data set with R. oryzae [5] was greater than 20 µM throughout. Also, the MFC (with R. microsporus; in the data set on R. stolonifer; in [4]; in the data set with R. oryzae [5]) was greater than 20 µM each time. For the same compound, the figures for the MIC (with R. oryzae UCP1295 [2]; in [4]) were 40 µM and greater than 20 µM, respectively. Besides, the “Efficacy of Drugs Alone (% of Inhibition), MIC50” value in the data set with R. oryzae [3] was 79.6 % of Inhibition. Further, the “Efficacy of Drugs Alone (% of Inhibition), ½ MIC50” value in the data set with R. oryzae [3] is recorded as 21.4 % of Inhibition.

By CC50 is commonly meant the concentration at which the toxic effect on the cells reaches its halfway point. The term inhibition denotes how much of the control response was suppressed. On to `Oc1cccc(C(Nc2nccs2)c2ccc3cccnc3c2O)c1` (stereo not drawn) [MMV642550], for which the “chitin content (calcofluor white)” value with R. oryzae cells is “decreased”. For the same compound, the “neutral lipids (Nile Red)” value in the data set with R. oryzae cells is “decreased”. The “Selectivity Index (SI), Planktonic Cell” value was greater than 10 with R. microsporus (R. microsporus, from CC50 and MIC50 of planktonic cells); greater than 20 with R. stolonifer (R. stolonifer, from CC50 and MIC50 of planktonic cells); greater than 20 in the data set with R. oryzae [5] (R. oryzae, from CC50 and MIC50 of planktonic cells). Moreover, the MIC50 was 5 µM (≈ 1.75 µg/mL) against R. microsporus, 2.5 µM (≈ 0.874 µg/mL) with R. stolonifer and 2.5 µM (≈ 0.874 µg/mL) in the data set with R. oryzae [5]. The MFC in the data set with R. microsporus, with R. stolonifer and against R. oryzae [5] was greater than 20 µM each time. In addition, the “Selectivity Index (SI), Preformed Biofilm” value in data set [6] is greater than 5; in data set [8] it was greater than 10. For the same compound, the MIC with R. oryzae UCP1295 [2] is 2.5 µM; in data set [4] it was 2.5 to 5 µM (≈ 0.874 to 1.75 µg/mL). Besides, the CC50 at 48 h is greater than 50 µM in data set [7] (A549 alveolar basal epithelial cells, A549, 48 h); greater than 50 µM in data set [7] (HaCaT keratinocyte cells); greater than 50 µM in data set [10]. The figures for the inhibition at 5 µM in the data set on R. oryzae UCP1295 [9] (setting [11]) and with R. oryzae UCP1295 [9] (setting [12]) were 59.8% and 60%, respectively. The “Viability Inhibition (XTT)” value in the data set on R. oryzae UCP1295 [9] came to 59%. In the data set with R. oryzae [3], the “Efficacy of Drugs Alone (% of Inhibition), MIC50” value was 62.9 % of Inhibition. Moreover, the “Efficacy of Drugs Alone (% of Inhibition), ½ MIC50” value with R. oryzae [3] is 42.3 % of Inhibition. Besides, the “Efficacy of Combined Drugs, E obs” value with R. oryzae [3] (combined with Amphotericin B) worked out at 78.1%; in the data set with R. oryzae [3] (combined with Posaconazole), 60.0%. Moreover, the Interaction result was “S” with R. oryzae [3] (combined with Amphotericin B) and “A” in the data set with R. oryzae [3] (combined with Posaconazole). Also, the ΔE is 23.5% in the data set on R. oryzae [3] (combined with Amphotericin B) and −26.5% with R. oryzae [3] (combined with Posaconazole). Further, the “Efficacy of Combined Drugs, E exp” value in the data set with R. oryzae [3] (combined with Amphotericin B) is 54.6%; in the data set on R. oryzae [3] (combined with Posaconazole), 86.5%.

Regarding `CC[C@@H]([C@H](C)O)n1ncn(-c2ccc(N3CCN(c4ccc(OC[C@@H]5CO[C@@](Cn6cncn6)(c6ccc(F)cc6F)C5)cc4)CC3)cc2)c1=O` [Posaconazole, reference compound], the MIC50 was 2.5 µM (≈ 1.75 µg/mL) against R. microsporus, 0.63 µM (≈ 0.441 µg/mL) in the data set with R. stolonifer and 1.25 µM (≈ 0.876 µg/mL) against R. oryzae [5]. Further, the minimal fungicidal concentration (MFC) (against R. microsporus; in the data set on R. stolonifer; in data set [4]; in the data set on R. oryzae [5]) was greater than 20 µM in each case. Moreover, the MIC with R. oryzae UCP1295 [2] was 1.25 µM; in data set [4], 0.63 to 2.5 µM (≈ 0.441 to 1.75 µg/mL). The inhibition at 5 µM with R. oryzae UCP1295 [9] (setting [11]) was determined as 56.3%; in the data set on R. oryzae UCP1295 [9] (setting [12]), 56%. Also, in the data set with R. oryzae UCP1295 [9], the “Viability Inhibition (XTT)” value was found to be 73%. The “Efficacy of Drugs Alone (% of Inhibition), MIC50” value in the data set on R. oryzae [3] was 63.4 % of Inhibition. The “Efficacy of Drugs Alone (% of Inhibition), ½ MIC50” value in the data set with R. oryzae [3] is given as 6.5 % of Inhibition.
